Measurements reported in patent publication US20230348378A1, “SMALL MOLECULE ALBUMIN BINDERS” (Oregon Health & Science University, priority 2020, published 2023).
Values belong to the molecule of their own block, whether it stands above or below them. Starred links: 1 amine or outer side, 2 acyl side, 3 side chain; linkers in the order of their positions; H or OH if unused. Positions of bridges follow the written chain, without caps; N, C: chain ends. Non-standard residues stand in square brackets, D forms with d. Residues, ends and D or L forms follow the SMILES beside them. *: point of attachment. DOTA = O=C(O)CN1CCN(CC(=O)O)CCN(CC(=O)*)CCN(CC(=O)O)CC1; NH(CH2CH2O)4CH2CO = O=C(COCCOCCOCCOCCN[*:1])[*:2]; X2 = O=C(CCCc1ccc(C(F)(F)F)c(F)c1)*; X1 = O=C(CCCc1ccc(C(F)(F)F)cc1)*

Key:
[1] = target: human serum albumin (HSA) (Homo sapiens, UniProt P02768); test: In vitro albumin protein binding ultrafiltration assay; details: for change of albumin binding affinity versus the corresponding ABX conjugate: D-ABCF3 vs ABCF3, hABCF3P vs ABCF3P, hABF3P vs ABF3P, εABCF3 vs ABCF3
Experimental: Following the published protocol, ultrafiltration assay was performed to assess albumin-binding properties of ^111In or ^64Cu labeled albumin binder-radioligand conjugates. ^111In or ^64Cu radiolabeling was conducted in NH4OAc (0.2 M, pH=7.0) buffer at 80° C. for 30 min with a specific activity of 3.7 MBq/nmol (100 μCi/nmol). The resulting albumin binder-radioligand conjugate (10 μL, 10 μM) was mixed with 100 μL human serum albumin (HSA, 1.0 mM in PBS 1×) and 90 μL PBS, followed by shaking gently at 37° C. for 30 min. After the incubation, 80 μL of each solution was loaded on the Zeba™ spin desalting column (7K MWCO) and centrifuged at 1500 g for 2 min. Radioactivity in 20 μL of each filtration and 10 μL mixture (before filtration) were quantified by the γ counter. The filtration rate of each sample was calculated as filtered counts/(mixture counts×2)×100%, all obtained results were then normalized by setting standard ABCF3 moiety as 74.4%. for the comparison purpose. The experiment was performed with triplicates. For working curve, different final concentrations of HSA varied from 10-1500 μM were used, followed the same protocol.

BxPC3 xenograft = test: Biodistribution in mice bearing BxPC3 xenograft; assay type: in vivo
PSMA+ PC3pip xenograft = test system: PSMA+ PC3pip xenograft; set-up: species or system mice; details: mouse, in vivo
Experimental: Biodistribution studies were performed 2 weeks after the tumor inoculation, when the size of tumor reached 5 mm. ^111In-labeled albumin binder-radioligand conjugates (1.85 MBq, 100 μL) were then administered via a lateral tail vein. The mice were sacrificed at 1, 2, 16, 24, or 48 h post-injections. Selected organs were collected and weighed, and the radioactivity was measured by the γ counter (Packard, Cobra E5003). The results were calculated as percentage of the injected dose per gram of mass (% ID/g).

[2] = filtration assay, [HSA]=500 μM, [tracers]=0.5 μM
[3] = in vivo evaluation of FRGD without albumin binder

Chain of human serum albumin (HSA) (P02768 25-609): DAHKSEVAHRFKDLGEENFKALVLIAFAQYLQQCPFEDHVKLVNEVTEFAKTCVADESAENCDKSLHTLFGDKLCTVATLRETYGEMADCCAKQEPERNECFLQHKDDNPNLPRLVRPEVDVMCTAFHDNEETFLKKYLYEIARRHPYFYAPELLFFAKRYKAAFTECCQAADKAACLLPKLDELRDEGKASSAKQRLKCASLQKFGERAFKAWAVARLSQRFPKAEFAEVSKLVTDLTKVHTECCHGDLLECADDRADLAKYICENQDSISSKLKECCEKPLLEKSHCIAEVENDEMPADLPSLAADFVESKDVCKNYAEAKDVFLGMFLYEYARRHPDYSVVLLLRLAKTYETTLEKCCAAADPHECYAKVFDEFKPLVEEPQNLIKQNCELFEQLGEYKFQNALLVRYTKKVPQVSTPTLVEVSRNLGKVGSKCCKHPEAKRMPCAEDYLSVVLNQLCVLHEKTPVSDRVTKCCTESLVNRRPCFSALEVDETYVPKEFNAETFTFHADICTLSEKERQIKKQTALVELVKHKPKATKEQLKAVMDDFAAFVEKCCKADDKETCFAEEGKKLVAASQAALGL

Compound: [N-]=[N+]=NCCCC[C@H](NC(=O)CN1CCN(CC(=O)O)CCN(CC(=O)O)CCN(CC(=O)O)CC1)C(=O)NCC(=O)NCCCC[C@H](NCCC(=O)NCCCCc1ccc(C(F)(F)F)cc1)C(=O)O [εABCF3]
change of albumin binding affinity versus the corresponding ABX conjugate [1, 2]: significantly decrease its binding affinity

filtration percentage (normalized) ([1]; 64Cu-labeled DOTA-albumin binder conjugate, [HSA]=500 μM, [tracers]=0.5 μM, value set as normalisation standard (average)): 75%
Compound: [N-]=[N+]=NCCCC[C@H](NC(=O)CN1CCC(CC(=O)O)CCN(CC(=O)O)CCN(CC(=O)O)CC1)C(=O)NCCCCCC(=O)N[C@@H](CCCCNC(=O)CCCc1ccc(C(F)(F)F)cc1)C(=O)O (some centres unmarked) [ABCF3]

Compound: CC(C)C[C@@H]1NC(=O)[C@H](CC(=O)O)NC(=O)CNC(=O)[C@H](CCCNC(=N)N)NC(=O)CNC(=O)[C@H]([C@@H](C)O)NC(=O)[C@@H](NC(=O)[C@H](CCCNC(=N)N)NC(=O)CNC(=O)CN2CCN(CC(=O)O)CCN(CC(=O)O)CCN(CC(=O)O)CC2)CSSC[C@@H](C(=O)N[C@@H](Cc2ccc(O)cc2)C(=O)N2CCC[C@H]2C(=O)N[C@@H](CC(=O)O)C(=O)NCCOCCOCCOCCOCC(=O)N[C@@H](CCCCNC(=O)CCCc2ccc(C(F)(F)F)c(F)c2)C(=O)O)NC(=O)[C@H](CC(C)C)NC(=O)[C@H](CCCNC(=N)N)NC(=O)CNC1=O [SFLAP3-ABCF3-3F] ({DOTA}-GRCTGRGDLGRLCYPD[NH(CH2CH2O)4CH2CO]K(X2)-OH; disulfide 3-13)
in vivo performance (biodistribution, tumor/nontumor ratios) (BxPC3 xenograft; SFLAP3 conjugates with various ABX, 24 h): best in vivo performance among all the tested ABX

Compound: CC(C)C[C@@H]1NC(=O)[C@H](CC(=O)O)NC(=O)CNC(=O)[C@H](CCCNC(=N)N)NC(=O)CNC(=O)[C@H]([C@@H](C)O)NC(=O)[C@@H](NC(=O)[C@H](CCCNC(=N)N)NC(=O)CNC(=O)CN2CCN(CC(=O)O)CCN(CC(=O)O)CCN(CC(=O)O)CC2)CSSC[C@@H](C(=O)N[C@@H](Cc2ccc(O)cc2)C(=O)N2CCC[C@H]2C(=O)N[C@@H](CC(=O)O)C(=O)NCCOCCOCCOCCOCC(=O)N[C@@H](CCCCNC(=O)CCCc2ccc(C(F)(F)F)cc2)C(=O)O)NC(=O)[C@H](CC(C)C)NC(=O)[C@H](CCCNC(=N)N)NC(=O)CNC1=O [SFLAP3-ABCF3] ({DOTA}-GRCTGRGDLGRLCYPD[NH(CH2CH2O)4CH2CO]K(X1)-OH; disulfide 3-13)
percentage bound to albumin protein ([1]; 64Cu-labeled, filtration assay, FIG. 6): ~75%

change of albumin binding affinity versus the corresponding ABX conjugate [1, 2]: slightly increased binding affinity
Compound: [N-]=[N+]=NCCCC[C@H](NC(=O)CN1CCN(CC(=O)O)CCN(CC(=O)O)CCN(CC(=O)O)CC1)C(=O)NCCCCCC(=O)N[C@H](CCCCCNC(=O)CCc1cc(F)c(F)c(F)c1)C(=O)O [hABF3P]

Compound: CC(C)C[C@@H]1NC(=O)[C@H](CC(=O)O)NC(=O)CNC(=O)[C@H](CCCNC(=N)N)NC(=O)[C@H](Cc2ccccc2)NC(=O)[C@H](CCCCN)N(C)C(=O)[C@H]2CCCN2C(=O)[C@H](Cc2ccccc2)NC(=O)[C@H](C)NC1=O (111In complex, metal not drawn) [FRGD]
kidney uptake (BxPC3 xenograft; 111In labeled, without ABCF3): very high | non-tumor uptakes (BxPC3 xenograft; [3]): high non-tumor uptakes | tumor uptake (BxPC3 xenograft; [3]): relatively low tumor uptake

Compound: O=C(O)CC[C@H](NC(=O)N[C@@H](CCCCNC(=O)[C@H](Cc1ccc2ccccc2c1)NC(=O)[C@H]1CC[C@H](CNC(=O)[C@H](CCCCNC(=O)CN2CCN(CC(=O)O)CCN(CC(=O)O)CCN(CC(=O)O)CC2)NC(=O)CCC(=O)N[C@@H](CCCCNC(=O)CCCc2ccc(C(F)(F)F)cc2)C(=O)O)CC1)C(=O)O)C(=O)O (64Cu complex, metal not drawn) [PSMA617-ABCF3]
increase of specific tumor uptake compared to PSMA617 (PSMA+ PC3pip xenograft): > 2 × | tumor/nontumor ratios compared to PSMA617 (PSMA+ PC3pip xenograft): enhance tumor/nontumor ratios

change of albumin binding affinity versus the corresponding ABX conjugate [1, 2]: slightly increased binding affinity
Compound: [N-]=[N+]=NCCCC[C@H](NC(=O)CN1CCC(CC(=O)O)CCN(CC(=O)O)CCN(CC(=O)O)CC1)C(=O)NCCCCCC(=O)N[C@H](CCCCNC(=O)CCCc1ccc(C(F)(F)F)cc1)C(=O)O (stereo partly drawn) [D-ABCF3]
